Laboratory results taken from ChEMBL document CHEMBL3407379, “Novel sesquiterpenes from Schisandra grandiflora: isolation, cytotoxic activity and synthesis of their triazole derivatives using "click" reaction” (Eur J Med Chem, 2015).

How the values were obtained:
HeLa = experiment: Cytotoxicity against human HeLa cells assessed as cell viability after 48 hrs by MTT assay; type: functional, cell-based
DU-145 = experiment: Cytotoxicity against human DU145 cells assessed as cell viability after 48 hrs by MTT assay; type: functional, cell-based; details: DU-145, 48 h
A549 = experiment: Cytotoxicity against human A549 cells assessed as cell viability after 48 hrs by MTT assay; type: functional, cell-based; details: A549, 48 h
HEK293 = experiment: Cytotoxicity against HEK293 cells assessed as cell viability after 48 hrs by MTT assay; type: cell-based; details: Homo sapiens, HEK293, 48 h
MCF7 = experiment: Cytotoxicity against human MCF7 cells assessed as cell viability after 48 hrs by MTT assay; type: functional, cell-based; details: MCF7, 48 h
B16 = experiment: Cytotoxicity against mouse B16 cells assessed as cell viability after 48 hrs by MTT assay; type: functional, cell-based; details: B16, 48 h

CC1(C)CCCC23C=C[C@](C)(CC[C@@]12C)OO3
IC50 (HeLa): 122 µM
IC50 (DU-145): 114 µM
IC50 (A549): 94.8 µM
IC50 (HEK293): 480 µM
IC50 (MCF7): 129 µM
IC50 (B16): 343 µM

C=C1CC[C@@H](C(C)C)[C@]12CC=C(C=O)CC2
IC50 (HeLa): 269 µM
IC50 (DU-145): 165 µM
IC50 (A549): 170 µM
IC50 (HEK293): 550 µM
IC50 (MCF7): 210 µM
IC50 (B16): 428 µM

C=C1CCC[C@]2(C)CCC(C=O)=CC[C@@]12C
IC50 (HeLa): 190 µM
IC50 (DU-145): 152 µM
IC50 (A549): 145 µM
IC50 (HEK293): 734 µM
IC50 (MCF7): 319 µM
IC50 (B16): 230 µM

CC1(C)CCCC2=CC=C(C=O)CC[C@]21C
IC50 (HeLa): 163 µM
IC50 (DU-145): 191 µM
IC50 (A549): 138 µM
IC50 (HEK293): 696 µM
IC50 (MCF7): 166 µM
IC50 (B16): 145 µM

CC1(C)CCC[C@]1(C)c1ccc(C=O)cc1
IC50 (HeLa): 252 µM
IC50 (DU-145): 260 µM
IC50 (A549): 216 µM
IC50 (HEK293): 771 µM
IC50 (MCF7): 202 µM
IC50 (B16): 257 µM

C#CC1=CC[C@@]2(C)C(=C)CCC[C@]2(C)CC1
IC50 (HeLa): 158 µM
IC50 (DU-145): 386 µM
IC50 (A549): 148 µM
IC50 (HEK293): 524 µM
IC50 (MCF7): 575 µM
IC50 (B16): 507 µM

C#CC1=CC[C@]2(CC1)C(=C)CC[C@H]2C(C)C
IC50 (HeLa): 97.6 µM
IC50 (DU-145): 121 µM
IC50 (A549): 103 µM
IC50 (HEK293): 740 µM
IC50 (MCF7): 135 µM
IC50 (B16): 123 µM

C=C1CCC[C@]2(C)CCC(c3cn(-c4ccc(OC)cc4)nn3)=CC[C@@]12C
IC50 (HeLa): 43.6 µM
IC50 (DU-145): 58.9 µM
IC50 (A549): 34.6 µM
IC50 (HEK293): 410 µM
IC50 (MCF7): 118 µM
IC50 (B16): 209 µM

C=C1CCC[C@]2(C)CCC(c3cn(-c4ccc(C(C)=O)cc4)nn3)=CC[C@@]12C
IC50 (HeLa): 15.1 µM
IC50 (DU-145): 51.7 µM
IC50 (A549): 46.4 µM
IC50 (HEK293): 520 µM
IC50 (MCF7): 65.4 µM
IC50 (B16): 61 µM

C=C1CCC[C@]2(C)CCC(c3cn(-c4cccc([N+](=O)[O-])c4)nn3)=CC[C@@]12C
IC50 (HeLa): 31.9 µM
IC50 (DU-145): 62.5 µM
IC50 (A549): 24.7 µM
IC50 (HEK293): 699 µM
IC50 (MCF7): 40.3 µM
IC50 (B16): 31.7 µM

C=C1CCC[C@]2(C)CCC(c3cn(-c4ccc(I)cc4)nn3)=CC[C@@]12C
IC50 (HeLa): 144 µM
IC50 (DU-145): 145 µM
IC50 (A549): 137 µM
IC50 (HEK293): 215 µM
IC50 (MCF7): 162 µM
IC50 (B16): 144 µM

C=C1CCC[C@]2(C)CCC(c3cn(-c4ccccc4C(C)=O)nn3)=CC[C@@]12C
IC50 (HeLa): 55.7 µM
IC50 (DU-145): 48.5 µM
IC50 (A549): 37.6 µM
IC50 (HEK293): 524 µM
IC50 (MCF7): 29.9 µM
IC50 (B16): 42.2 µM

C=C1CCC[C@]2(C)CCC(c3cn(CC(=O)Nc4ccc(C)cc4)nn3)=CC[C@@]12C
IC50 (HeLa): 131 µM
IC50 (DU-145): 254 µM
IC50 (A549): 270 µM
IC50 (HEK293): 622 µM
IC50 (MCF7): 80.1 µM
IC50 (B16): 210 µM

C=C1CCC[C@]2(C)CCC(c3cn(-c4cccc(OC)c4)nn3)=CC[C@@]12C
IC50 (HeLa): 27.9 µM
IC50 (DU-145): 38.9 µM
IC50 (A549): 11.2 µM
IC50 (HEK293): 734 µM
IC50 (MCF7): 56.2 µM
IC50 (B16): 34.6 µM

C=C1CCC[C@]2(C)CCC(c3cn(-c4ccc(Cl)cc4)nn3)=CC[C@@]12C
IC50 (HeLa): 18.8 µM
IC50 (DU-145): 26 µM
IC50 (A549): 20.1 µM
IC50 (HEK293): 609 µM
IC50 (MCF7): 35.1 µM
IC50 (B16): 27.2 µM

C=C1CCC[C@]2(C)CCC(c3cn(-c4ccc(C)cc4)nn3)=CC[C@@]12C
IC50 (HeLa): 69.1 µM
IC50 (DU-145): 132 µM
IC50 (A549): 58.8 µM
IC50 (HEK293): 524 µM
IC50 (MCF7): 54.9 µM
IC50 (B16): 57.6 µM

C=C1CCC[C@]2(C)CCC(c3cn(CC(=O)Nc4ccccc4)nn3)=CC[C@@]12C
IC50 (HeLa): 62.9 µM
IC50 (DU-145): 146 µM
IC50 (A549): 72.2 µM
IC50 (HEK293): 491 µM
IC50 (MCF7): 148 µM
IC50 (B16): 148 µM

C=C1CCC[C@]2(C)CCC(c3cn(-c4cc(OC)c(OC)cc4OC)nn3)=CC[C@@]12C
IC50 (HeLa): 45 µM
IC50 (DU-145): 49.4 µM
IC50 (A549): 32.6 µM
IC50 (HEK293): 334 µM
IC50 (MCF7): 41.1 µM
IC50 (B16): 47.2 µM

C=C1CC[C@@H](C(C)C)[C@]12CC=C(c1cn(CC(=O)Nc3ccc(C)cc3)nn1)CC2
IC50 (HeLa): 54.1 µM
IC50 (DU-145): 44.5 µM
IC50 (A549): 31.7 µM
IC50 (HEK293): 303 µM
IC50 (MCF7): 142 µM
IC50 (B16): 195 µM

C=C1CC[C@@H](C(C)C)[C@]12CC=C(c1cn(-c3cc(OC)c(OC)cc3OC)nn1)CC2
IC50 (HeLa): 37.4 µM
IC50 (DU-145): 29.7 µM
IC50 (A549): 20.5 µM
IC50 (HEK293): 509 µM
IC50 (MCF7): 44 µM
IC50 (B16): 29.1 µM

C=C1CC[C@@H](C(C)C)[C@]12CC=C(c1cn(-c3ccc(OC)cc3)nn1)CC2
IC50 (HeLa): 54.9 µM
IC50 (DU-145): 65.1 µM
IC50 (A549): 43.6 µM
IC50 (HEK293): 388 µM
IC50 (MCF7): 63.1 µM
IC50 (B16): 107 µM

COc1cccc2c1C(=O)c1c(O)c3c(c(O)c1C2=O)C[C@@](O)(C(=O)CO)C[C@@H]3O[C@H]1C[C@H](N)[C@H](O)[C@H](C)O1 [DOXORUBICIN]
IC50 (HeLa): 3.57 µM
IC50 (DU-145): 5.3 µM
IC50 (MCF7): 2.24 µM
IC50 (B16): 2.78 µM
